Assay results published in patent US10227388B2, “Peptides and combination of peptides for use in immunotherapy against non-small cell lung cancer and other cancers” (immatics biotechnologies GmbH, priority 2015, dated 2019).

Key:
[1] = test system: CD8+ T cells; experiment: In vitro immunogenicity: T-cell priming with artificial antigen presenting cells loaded with peptide/MHC complexes and anti-CD28 antibody, multimer readout; format: cell-based, human; settings: for Wells positive [%]: HLA-A*02 restricted peptides, positive wells among evaluable; for in vitro immunogenicity, donors: percentage of positive donors; for in vitro immunogenicity, wells: percentage of positive wells
Experimental: In an aspect, the peptides are pre-screened for immunogenicity before being included in the warehouse. By way of example, and not limitation, the immunogenicity of the peptides included in the warehouse is determined by a method comprising in vitro T-cell priming through repeated stimulations of CD8+ T cells from healthy donors with artificial antigen presenting cells loaded with peptide/MHC complexes and anti-CD28 antibody.
In order to obtain information regarding the immunogenicity of the TUMAPs of the present invention, the inventors performed investigations using an in vitro T-cell priming assay based on repeated stimulations of CD8+ T cells with artificial antigen presenting cells (aAPCs) loaded with peptide/MHC complexes and anti-CD28 antibody.
In order to perform in vitro stimulations by artificial antigen presenting cells loaded with peptide-MHC complex (pMHC) and anti-CD28 antibody, the inventors first isolated CD8+ T cells from fresh HLA-A*02 leukapheresis products via positive selection using CD8 microbeads (Miltenyi Biotec, Bergisch-Gladbach, Germany) of healthy donors obtained from the University clinics Mannheim, Germany, after informed consent.
PBMCs and isolated CD8+ lymphocytes were incubated in T-cell medium (TCM) until use consisting of RPMI-Glutamax (Invitrogen, Karlsruhe, Germany) supplemented with 10% heat inactivated human AB serum (PAN-Biotech, Aidenbach, Germany), 100 U/ml Penicillin/100 μg/ml Streptomycin (Cambrex, Cologne, Germany), 1 mM sodium pyruvate (CC Pro, Oberdorla, Germany), 20 μg/ml Gentamycin (Cambrex). 2.5 ng/ml IL-7 (PromoCell, Heidelberg, Germany) and 10 U/ml IL-2 (Novartis Pharma, Nürnberg, Germany) were also added to the TCM at this step.
Generation of pMHC/anti-CD28 coated beads, T-cell stimulations and readout was performed in a highly defined in vitro system using four different pMHC molecules per stimulation condition and 8 different pMHC molecules per readout condition.
The purified co-stimulatory mouse IgG2a anti human CD28 Ab 9.3 (Jung et al., 1987) was chemically biotinylated using Sulfo-N-hydroxysuccinimidobiotin as recommended by the manufacturer (Perbio, Bonn, Germany). Beads used were 5.6 μm diameter streptavidin coated polystyrene particles (Bangs Laboratories, Illinois, USA).
pMHC used for positive and negative control stimulations were A*0201/MLA-001 (peptide […] (SEQ ID NO. 664) from modified Melan-A/MART-1) and A*0201/DDX5-001 ([…] from DDX5, SEQ ID NO. 665), respectively.
800.000 beads/200 μl were coated in 96-well plates in the presence of 4×12.5 ng different biotin-pMHC, washed and 600 ng biotin anti-CD28 were added subsequently in a volume of 200 μl. Stimulations were initiated in 96-well plates by co-incubating 1×10^6 CD8+ T cells with 2×10^5 washed coated beads in 200 μl TCM supplemented with 5 ng/ml IL-12 (PromoCell) for 3 days at 37° C. Half of the medium was then exchanged by fresh TCM supplemented with 80 U/ml IL-2 and incubating was continued for 4 days at 37° C. This stimulation cycle was performed for a total of three times. For the pMHC multimer readout using 8 different pMHC molecules per condition, a two-dimensional combinatorial coding approach was used as previously described (Andersen et al., 2012) with minor modifications encompassing coupling to 5 different fluorochromes. Finally, multimeric analyses were performed by staining the cells with Live/dead near IR dye (Invitrogen, Karlsruhe, Germany), CD8-FITC antibody clone SK1 (BD, Heidelberg, Germany) and fluorescent pMHC multimers. For analysis, a BD LSRII SORP cytometer equipped with appropriate lasers and filters was used. Peptide specific cells were calculated as percentage of total CD8+ cells. Evaluation of multimeric analysis was done using the FlowJo software (Tree Star, Oreg., USA). In vitro priming of specific multimer+CD8+ lymphocytes was detected by comparing to negative control stimulations. […]

[2] = target: HLA-A*02:01 (Homo sapiens, UniProt P04439, D140Y/D185E/D98H/E176V/E277Q/G131W/G231S/I119V/I121R/I166T/I218V/L300P/L318F/N151K/N90K/P208A/P217A/Q86G/Q94H/R138H/R169H/T345S); experiment: MHC binding assay (UV-ligand exchange, ELISA, peptide exchange yield); settings: binding of HLA-class I restricted peptides to HLA-A*02:01
Method in brief: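 Peptide–HLA-A*02:01 complexes made by UV-ligand exchange of a UV-cleavable peptide for the test peptide. Exchange yield measured by ELISA: 100-fold diluted monomers captured on streptavidin, 1 h at 37° C., detected with HRP anti-β2m and TMB, absorbance at 450 nm.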

Row | Substance | Wells positive [%] [1] | Peptide exchange (MHC class I binding score, peptide exchange yield) [2] | in vitro immunogenicity, donors [1] | in vitro immunogenicity, wells [1]
1 | 489 (KMWEELPEVV; listed as Homo sapiens) [compound 489] | ″+″ (<20% = +) | ″+++″ (≥50% = +++) |  | 
2 | 511 (FLDPYCSASV; listed as Homo sapiens) [compound 511] | ″+″ (<20% = +) | ″++″ (≥20% = ++) |  | 
3 | 652 (TLWYRAPEV; listed as Homo sapiens) [compound 652] |  |  | ++++ (> = 70% = ++++) | +++ (50%-69% = +++)
4 | 283 (ALYIGDGYVIHLA; listed as Homo sapiens) [compound 283] |  | ″+++″ (≥50% = +++) | +++ (50%-69% = +++) | + (<20% = +)
5 | 384 (ILFANPNIFV; listed as Homo sapiens) [compound 384] | ″+″ (<20% = +) | ″+++″ (≥50% = +++) |  | 
6 | 499 (KIFDIDEAEEGV; listed as Homo sapiens) [compound 499] | ″+″ (<20% = +) | ″++″ (≥20% = ++) |  | 
7 | 38 (FLLEDDIHVS; listed as Homo sapiens) [compound 38] | ″+″ (<20% = +) | ″+++″ (≥50% = +++) |  | 
8 | 143 (LLLDITPEI; listed as Homo sapiens) [compound 143] | ″+″ (<20% = +) | ″++++″ (≥75% = ++++) |  | 
9 | 141 (YLDFSNNRL; listed as Homo sapiens) [compound 141] | ″+″ (<20% = +) | ″++″ (≥20% = ++) |  | 
10 | 460 (AMLEKNYKL; listed as Homo sapiens) [compound 460] | ″+″ (<20% = +) | ″++++″ (≥75% = ++++) |  | 
11 | 118 (KLIDNNINV; listed as Homo sapiens) [compound 118] | ″+″ (<20% = +) | ″+++″ (≥50% = +++) |  | 
12 | 8 (FTLGNVVGMYL; listed as Homo sapiens) [compound 8] | ″+″ (<20% = +) | ″++++″ (≥75% = ++++) |  | 
13 | 648 (LLWGNAIFL; listed as Homo sapiens) [compound 648] |  |  | +++ (50%-69% = +++) | ++ (20%-49% = ++)
14 | 56 (KLYEGIPVLL; listed as Homo sapiens) [compound 56] | ″+″ (<20% = +) | ″++++″ (≥75% = ++++) |  | 
15 | 79 (SLFIGEKAVLL; listed as Homo sapiens) [compound 79] | ″+″ (<20% = +) | ″+++″ (≥50% = +++) |  | 
16 | 11 (KIFEMLEGV; listed as Homo sapiens) [compound 11] | ″+″ (<20% = +) | ″+++″ (≥50% = +++) |  | 
17 | 603 (FLIEPEHVNTV; listed as Homo sapiens) [compound 603] | ″+″ (<20% = +) | ″++″ (≥20% = ++) |  | 
18 | 662 (KIQEILTQV; listed as Homo sapiens) [compound 662] |  |  | +++ (50%-69% = +++) | + (<20% = +)
19 | 319 (SLEPQIQPV; listed as Homo sapiens) [compound 319] | ″+″ (<20% = +) | ″++″ (≥20% = ++) |  | 
20 | 113 (GLLPTPLFGV; listed as Homo sapiens) [compound 113] | ″+″ (<20% = +) | ″+++″ (≥50% = +++) |  | 
21 | 36 (YVLEDLEVTV; listed as Homo sapiens) [compound 36] | ″+″ (<20% = +) | ″++″ (≥20% = ++) |  | 
22 | 247 (VLLPNDLLEKV; listed as Homo sapiens) [compound 247] | ″+″ (<20% = +) | ″+++″ (≥50% = +++) |  | 
23 | 443 (GLWEIENNPTV; listed as Homo sapiens) [compound 443] | ″+″ (<20% = +) | ″+++″ (≥50% = +++) |  | 
24 | 663 (KIQEMQHFL; listed as Homo sapiens) [compound 663] |  |  | +++ (50%-69% = +++) | + (<20% = +)
25 | 659 (ILFPDIIARA; listed as Homo sapiens) [compound 659] |  |  | +++ (50%-69% = +++) | + (<20% = +)
26 | 48 (ALAELYEDEV; listed as Homo sapiens) [compound 48] | ″+″ (<20% = +) | ″+++″ (≥50% = +++) |  | 
27 | 199 (ALQDVPLSSV; listed as Homo sapiens) [compound 199] | ″+″ (<20% = +) | ″+++″ (≥50% = +++) |  | 
28 | 150 (RLWEEGEELEL; listed as Homo sapiens) [compound 150] | ″+″ (<20% = +) | ″+++″ (≥50% = +++) |  | 
29 | 3 (SLASKLTTL; listed as Homo sapiens) [compound 3] | ″+″ (<20% = +) | ″++++″ (≥75% = ++++) |  | 
30 | 2 (SLLEADPFL; listed as Homo sapiens) [compound 2] | ″+″ (<20% = +) | ″+++″ (≥50% = +++) |  | 
